Laboratory results as given in patent US20260159854A1, “NOVEL CARRIERS FOR NUCLEIC ACID AND/OR PROTEIN DELIVERY” (LUDWIG-MAXIMILIANS-UNIVERSITÄT MÜNCHEN, priority 2022, published 2026).

How the values were obtained:
[1] = Particle size, polydispersity and zeta potential measurement (DLS, ELS); assay type: physicochemical; parameters: Zeta / Size: unit not given here
Procedure: 6.6 Particle Size and Zeta Potential Measurement for pDNA, mRNA, siRNA, Cas9 mRNA/sgRNA and Cas9 mRNA/sgRNA/ssDNA Polyplexes as Well as mRNA LNPs
Measurements of size and zeta potential were performed with a Zetasizer Nano ZS (Malvern Instruments, Malvern, Worcestershire, U.K.) in a folded capillary cell (DTS1070) by dynamic and electrophoretic laser-light scattering (DLS, ELS). […] Samples were measured three times with six sub runs per measurement. For measurement of the zeta potential, all samples were diluted to 800 μL with HBG or HEPES (for siRNA polyplexes) directly before measurement. Parameters were identical to the size measurement apart from an equilibration time of 60 sec. Three measurements with 15 sub runs lasting 10 sec each were performed, and zeta potentials were calculated by the Smuchowski equation.

[2] = tested on: N2a/eGFPLuc, KB/eGFPLuc, and CT26/eGFPLuc; assay: Gene silencing activity of siRNA LNPs in three cell lines; assay type: cell-based; settings: N/P 9, 63 and 31 ng siRNA/well, 48 h
N2a cells = assay: Co-delivery efficiency of mRNA/pDNA polyplexes by flow cytometry; assay type: cell-based, murine; settings: N/P 18, 25 and 50 ng combined nucleic acid/well
Procedure: CleanCap® mCherry mRNA (5moU) (Trilink Biotechnologies, San Diego, CA, USA) and pEGFP-N1 pDNA (Clontech Laboratories, Inc. (now Takara Bio USA, Inc., San Jose, CA, USA)) at a fixed weight ratio of 1:1 were mixed and diluted in HBG. Calculated amounts of aminolipid at indicated N/P (nitrogen/phosphate) ratios (see above) were diluted in separate tubes of HBG. Equal volumes of nucleic acid solution and aminolipid solution were mixed by rapid pipetting and incubated 40 min at RT in a closed Eppendorf reaction tube. The final concentration of nucleic acid in the polyplex solution was 5 μg/mL (2.5 μg/mL mCherry mRNA plus 2.5 μg/mL pEGFP-N1 pDNA).
mRNA/pDNA polyplex treatments were performed in triplicate in 96-well plates. N2a cells were seeded 24 h prior to transfection (10,000 cells/well). On the next day, the medium was replaced with 80 μL of fresh pre-warmed medium containing 10% (v/v) FBS. The nanoparticles were prepared as described above, and the volumes of 10 and 5 μL of polyplex solution (2.5 μg/mL mCherry mRNA and 2.5 μg/mL pEGFP-N1 pDNA) were added. 20 μL HBG buffer per well was used as negative control. After 24 h of treatment, cells were collected and re-suspended in PBS solution containing 10% (v/v) FBS (FACS buffer) for flow cytometric evaluation. All samples were analyzed by flow cytometry using a CytoFLEX S Flow Cytometer (Beckman Coulter, Brea, CA, USA). Shortly before the measurement, 1 ng/μL 4′, 6-diamidino-2-phenylindole (DAPI) was added and used to discriminate between viable and dead cells. The cellular fluorescence was assayed by excitation of DAPI at 405 nm and detection of emission at 450 nm. Only isolated viable cells were evaluated. Gates were set compared to control measurements with HBG buffer-treated cells. […] Flow cytometry data were analyzed using FlowJo™ v10.8 flow cytometric analysis software by FlowJo, LLC (Becton, Dickinson and Company, U.S.). The cellular fluorescence expression was assayed by excitation at 561 nm and 488 nm, the detection of emission at 610 nm and 530 nm for mCherry and eGFP, respectively.

[3] = tested on: N2a/eGFPLuc, DU145/eGFPLuc, and KB/eGFPLuc; assay: Gene silencing activity of siRNA polyplexes in three cell lines; assay type: cell-based, murine, human; settings: N/P 18, 15.6 ng siRNA/well, 48 h
Huh7 cells [4] = assay: Luciferase gene expression of mRNA LNPs in Huh7 cells; assay type: cell-based, human; settings: 62.5 ng mRNA/well, N/P 9
[5] = tested on: KB, U87, and HCT116 cells; settings: 10 ng poly(I:C) per well, 48 h, especially in KB cells
Procedure: The cytotoxic effect of double-stranded RNA (poly(I:C)) was evaluated in cancer cells using LAF carriers 1611, 1719, and 1752. The toxicity induced by poly(I:C) and carriers were differentiated by using non-toxic single-stranded poly(I). LPEI and the LAF-Stp carriers were transfected in medium supplemented with 10% (v/v) FBS. In the case of lipofectamine, particles were prepared and transfected according to the manufacturer's protocol (particle formation as well as transfection in serum-free medium; ThermoFisher). At 4 h after lipofectamine transfection, medium was replaced with fresh medium supplemented with 10% (v/v) FBS followed by incubation of 48 h in total. The percentage of cell survival was calculated relative to the HBG buffer-treated control cells (n=3, mean+SD).

[6] = tested on: N2a tumor-bearing A/J mice; assay: Ex vivo luciferase expression after intravenous injection of mRNA polyplexes; assay type: in vivo; settings: tumors, lungs, liver, spleen
Procedure: Neuro2a cells (10^6 cells/150 μL PBS) were inoculated subcutaneously into the left flank of 6-week-old female A/J mice (Envigo RMS GmbH, Dusseldorf, Germany). Mice were randomly divided into groups of three (in the case of mRNA LNPs) or five (in the case of mRNA polyplexes) and were housed in isolated ventilated cages under specific pathogen free conditions with a 12 h day/night interval, and food and water ad libitum. Weight and general well-being were monitored continuously. Tumor size was measured with a caliper and determined by formula: a*b^2/2 (a=longest side of the tumor; b=widest side vertical to a). When tumors reached a size of 250-500 mm3, the experiments were performed by intravenous tail vein injection of polyplexes or LNPs formed as described in 6.1 and 6.3, containing 1 μg, 3 μg or 10 μg of stabilized firefly luciferase encoding mRNA (CleanCap™ FLuc mRNA (5moU); Trilink Biotechnologies, San Diego, CA, USA) in 150 μL HBG. Polyplexes containing 10 μg mRNA were dialyzed for 1 h at 4° C. against HBG (dialysis membrane MWCO 100-500 Da; Spectra/Por®, Carl Roth, Karlsruhe, Germany) prior to application to remove small amounts of ethanol. […] The luciferase gene expression was determined as described above and is presented as relative light units (RLU) per gram (g) tumor/organ.
To evaluate luciferase mRNA delivery by an ex vivo luciferase gene expression assay, organ and tumor tissues were homogenized in Luciferase Cell Culture Lysis Reagent 1× (Promega, Mannheim, Germany), supplemented with 1% (v/v) protease and phosphatase inhibitor cocktail (Sigma-Aldrich, Munich, Germany) using a tissue and cell homogenizer (FastPrep®-24, MP Biomedicals, USA). […] Luciferase activity in 25 μL supernatant was measured in a Centro LB 960 plate reader luminometer (Berthold Technologies, Bad Wildbad, Germany) for 10 sec after addition of 100 μL/well of a LAR buffer solution (20 mM glycylglycine, 1.0 mM MgCl2, 0.10 mM EDTA, 3.3 mM DTT, 0.55 mM ATP, and 0.27 mM coenzyme A; pH 8-8.5) supplemented with 5% (v/v) of a mixture of 10 mM luciferin and 29 mM glycylglycine.

Huh7 cells [7] = assay: Luciferase expression assay of pDNA polyplexes in Huh7 cells; assay type: cell-based, human
N2a/eGFPLuc cells = assay: eGFP knock out efficiency of Cas9 mRNA/sgGFP1 polyplexes by flow cytometry; assay type: cell-based, murine; settings: after 72 h
Procedure: For Cas9 mRNA/sgRNA polyplexes, CleanCap® Cas9 mRNA (5moU) (Trilink Biotechnologies, San Diego, CA, USA) and sgRNA at a fixed weight ratio of 1:1 were mixed and diluted in HBG.
Calculated amounts of aminolipid at indicated N/P (nitrogen/phosphate) ratios (see above) were diluted in separate tubes of HBG. Equal volumes of nucleic acid solution and aminolipid solution were mixed by rapid pipetting and incubated 40 min at RT in a closed Eppendorf reaction tube.
Cas9 mRNA/sgRNA polyplex treatments were performed in triplicate in 96-well plates. N2a eGPFLuc cells were seeded 24 h prior to transfection (5000 cells/well). On the next day, the medium was replaced with 80 μL of fresh pre-warmed medium containing 10% (v/v) FBS. The nanoparticles were prepared as described above, and the volumes of 20, 10, and 5 μL of polyplex solution (2.5 μg/mL Cas9 mRNA and 2.5 μg/mL sgGFP1) were added. 20 μL HBG buffer per well was used as negative control. After 24 h of treatment, the cells were expanded, and the medium was replaced by 100 μL of fresh pre-warmed medium and incubated for additional 48 h. […] Only isolated viable cells were evaluated. The eGFP knock out efficiency was determined as the percentage of eGFP negative cells normalized to the control measurements with HBG buffer-treated cells.

[8] = mRNA LNPs, 12.5 μg/mL CleanCap FLuc mRNA (5moU), N/P 9, molar ratios see Table A
[9] = siRNA LNPs, siCtrl 25 μg/mL, N/P 9
[10] = Cas9 mRNA/sgDMDex23 polyplexes, N/P 24, combined nucleic acid 12.5 μg/mL
[11] = PEGylated pDNA polyplexes 25% PEG, 10 μg/mL pCMVLuc
[12] = Targeted pDNA polyplexes 12.5% PEG 2k, 12.5% PEG-GE11, 10 μg/mL pCMVLuc
[13] = Unmodified pDNA polyplexes 0%, 10 μg/mL pCMVLuc
[14] = dialyzed mRNA polyplexes for in vivo application, 66.7 μg/mL mRNA, 1611 N/P 18, 1719 N/P 12
[15] = mRNA polyplexes, 12.5 μg/mL CleanCap FLuc mRNA (5moU), N/P 12 (1611, 1719, 1722, 1732), N/P 24 (1614), N/P 18 (1621, 1747)
[16] = pDNA polyplexes, N/P 12, 10 μg/mL pCMVLuc
[17] = poly(I) polyplexes, 12.5 μg/mL, 1611 N/P 18, 1719 N/P 12, 1752 N/P 24
[18] = poly(I:C) polyplexes, 12.5 μg/mL, 1611 N/P 18, 1719 N/P 12, 1752 N/P 24

Substance: K[K(16Bu)2]2-Stp [compound 1753]
- Pdl [1, 8]: 0.227
- Z-average [1, 8]: 142.1 nm
- Zeta potential [1, 8]: 3.39 mV
- Pdl [1, 9]: 0.292
- Z-average [1, 9]: 195.1 nm
- Zeta potential [1, 9]: 2.6 mV
- gene silencing (eGFP silencing) of siRNA LNPs [2]: approximately the same potential for eGFP silencing

Substance: K[K(10Oc)2]2-Stp [compound 1762]
- Pdl [1, 9]: 0.104
- Z-average [1, 9]: 244.3 nm
- Zeta potential [1, 9]: −3.2 mV
- gene silencing (eGFP silencing) of siRNA LNPs [2]: approximately the same potential for eGFP silencing

Substance: K(12Oc)2-Stp-K[K(12Oc)2] [compound 1716]
- Pdl [1, 8]: 0.150
- Z-average [1, 8]: 200.9 nm
- Zeta potential [1, 8]: −0.25 mV
- mCherry mRNA/eGFP pDNA co-expression (co-delivery efficiency) (N2a cells): most potent structures
- gene silencing efficiency of siRNA polyplexes in three cell lines [3]: great performance in all three tested cell lines

Substance: K[K(14He)2]2-Stp [compound 1755]
- Pdl [1, 8]: 0.220
- Z-average [1, 8]: 149.6 nm
- Zeta potential [1, 8]: 2.26 mV
- Pdl [1, 9]: 0.287
- Z-average [1, 9]: 160.6 nm
- Zeta potential [1, 9]: 3.4 mV
- luciferase expression of mRNA LNPs relative to SM-102 (Huh7 cells [4]): 2 fold

Substance: [K(12Oc)]2-Stp2-[K(12Oc)]2 [compound 1719]
- Pdl [1, 10]: 0.268
- Z-average [1, 10]: 80.8 nm
- Zeta potential [1, 10]: 42.6 mV
- Pdl [1, 11]: 0.13
- Size [1, 11]: 76
- Zeta [1, 11]: 10.5
- Pdl [1, 12]: 0.13
- Size [1, 12]: 88
- Zeta [1, 12]: 10.5
- Pdl [1, 13]: 0.09
- Size [1, 13]: 77
- Zeta [1, 13]: 29.5
- Pdl [1, 14]: 0.176 ± 0.016
- Zeta potential [1, 14]: 30.7 ± 1.7 mV
- Pdl [1, 15]: 0.225
- Z-average [1, 15]: 75.0 nm
- Zeta potential [1, 15]: 33.0 mV
- Pdl [1, 16]: 0.220 ± 0.001
- Z-average [1, 16]: 110.4 ± 1.89 nm
- Zeta potential [1, 16]: 13.0 ± 0.5 mV
- Pdl [1, 17]: 0.32 ± 0.08
- Z-average [1, 17]: 86.8 ± 11.4 nm
- Zeta potential [1, 17]: 23.2 ± 0.4 mV
- Pdl [1, 18]: 0.25 ± 0.05
- Z-average [1, 18]: 95.9 ± 2.1 nm
- Zeta potential [1, 18]: 13.8 ± 2.9 mV
- cell viability after poly(I:C) polyplex treatment [5]: significant decrease in the cell viability
- in vivo luciferase expression of mRNA polyplexes [6]: great in vivo performance
- RLU values of targeted polyplexes in comparison to shielded polyplexes (Huh7 cells [7]; N/P 12, pDNA dose 50 ng/well): 6.5 fold
- RLU values of targeted polyplexes in comparison to shielded polyplexes (Huh7 cells [7]; N/P 12, pDNA dose 100 ng/well): 4.4 fold

Substance: K(8Oc)2-Stp2-K[K(8Oc)2] [compound 1732]
- Pdl [1, 15]: 0.304
- Z-average [1, 15]: 98.2 nm
- Zeta potential [1, 15]: 26.2 mV
- eGFP knock-out efficiency of Cas9 mRNA/sgRNA polyplexes (N2a/eGFPLuc cells): good knock-out efficiency

Substance: K[K(12He)2]2-Stp [compound 1754]
- Pdl [1, 8]: 0.187
- Z-average [1, 8]: 171.0 nm
- Zeta potential [1, 8]: 1.11 mV
- Pdl [1, 9]: 0.144
- Z-average [1, 9]: 173.0 nm
- Zeta potential [1, 9]: 2.2 mV
- RLU values of mRNA LNPs relative to DLin-MC3-DMA (Huh7 cells [4]): 10 fold
